In patent US20260176289A1, “SMALL MOLECULE INHIBITORS OF KRAS PROTEINS” (Merck Sharp & Dohme LLC, priority 2022, published 2026):

Legend:
KRAS-WT = KRAS-WT (Homo sapiens, UniProt P01116); assay: SOS-catalyzed nucleotide exchange assay (Procedure A, TR-FRET), KRAS-WT; assay type: biochemical; conditions: nucleotide exchange, read-out: KRAS WT GNE IC50
Summary of the method: (§1)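 Signal ratio (520/495 nm, excitation 340 nm) reports Bodipy-GDP retention on biotinylated RAS after SOS-catalyzed exchange with 3 mM GTP. SOS was 40 nM, except 160 nM for G12V. Room-temperature exchange lasted 60 min (90 min for G12V), following a 60 min compound preincubation.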

KRAS-G12D = KRAS-G12D (Homo sapiens, UniProt P01116, G12D); assay: SOS-catalyzed nucleotide exchange assay (Procedure A, TR-FRET), KRAS-G12D; assay type: biochemical; conditions: nucleotide exchange, read-out: KRAS G12D GNE IC50
Summary of the method: as §1

KRAS-G12V = KRAS-G12V (Homo sapiens, UniProt P01116, G12V); assay: SOS-catalyzed nucleotide exchange assay (Procedure A, TR-FRET), KRAS-G12V; assay type: biochemical; conditions: nucleotide exchange, read-out: KRAS G12V GNE IC50
Summary of the method: as §1

AsPC-1 cells = assay: Cellular phospho-ERK assay, AsPC-1 cells (homozygous KRAS-G12D); assay type: cell-based; conditions: Homo sapiens, ASPC1, 2 h, KRAS-G12D, 2 hours, read-out: AsPC1 pERK IC50
Summary of the method: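 Readout: p-ERK/total ERK ratio measured by Alpha SureFire Ultra multiplex in lysates after 2 h compound exposure (37 °C, 5% CO2). Dosing ran 10 points, 1:3 dilutions, highest final concentration 30 μM. IC50 values derived by four-parameter logistic regression.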

KRAS-WT, sequence (P01116 with tags, fused parts or gaps isoform P01116-2): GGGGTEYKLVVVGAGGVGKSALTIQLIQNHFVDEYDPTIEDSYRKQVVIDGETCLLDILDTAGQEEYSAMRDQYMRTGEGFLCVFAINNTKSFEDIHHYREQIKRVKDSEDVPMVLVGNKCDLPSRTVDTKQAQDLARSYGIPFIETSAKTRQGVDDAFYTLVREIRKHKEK
KRAS-G12V, sequence (P01116 with tags, fused parts or gaps isoform P01116-2 G12V): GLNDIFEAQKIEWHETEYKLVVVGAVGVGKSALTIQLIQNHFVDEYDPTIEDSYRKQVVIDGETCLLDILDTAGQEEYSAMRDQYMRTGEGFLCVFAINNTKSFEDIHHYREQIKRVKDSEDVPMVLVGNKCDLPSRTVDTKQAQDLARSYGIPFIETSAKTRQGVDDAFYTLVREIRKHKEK
KRAS-G12D, sequence (P01116 with tags, fused parts or gaps isoform P01116-2 G12D): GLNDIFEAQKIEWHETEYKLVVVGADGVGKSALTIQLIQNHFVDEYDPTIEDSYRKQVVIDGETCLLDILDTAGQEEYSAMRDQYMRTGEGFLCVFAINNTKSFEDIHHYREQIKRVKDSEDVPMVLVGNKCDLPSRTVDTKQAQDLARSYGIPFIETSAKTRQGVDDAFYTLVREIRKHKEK

| SMILES | IC50 (KRAS-WT) [nM] | IC50 (KRAS-G12D) [nM] | IC50 (KRAS-G12V) [nM] | IC50 (AsPC-1 cells) [nM] |
| --- | --- | --- | --- | --- |
| C[C@@H]1CC[C@@H](COc2nc(N3CCOC[C@@](C)(O)C3)c3c(n2)sc2c(-c4c(C5CC5)c(C(F)(F)F)cc5[nH]ncc45)nccc23)N1C [Ex-86, (6S)-4-(8-(5-cyclopropyl-6-(trifluoromethyl)-1H-indazol-4-yl)-2-(((2S,5R)-1,5-dimethylpyrrolidin-2-yl)methoxy)pyrido[4′,3′:4,5]thi-eno[2,3-d]pyrimidin-4-yl)-6-methyl-1,4-oxazepan-6-ol] | 33.8 | 14.6 | 21.2 | 361 |
| C[C@@]1(O)COCCN(c2nc(OC[C@@]34CCCN3C[C@H](F)C4)nc3sc4c(-c5c6c(cc7[nH]ncc57)C5CC5C6)nccc4c23)C1 (stereo partly drawn) [Ex-91, (6S)-4-(2-(((2R,7aS)-2-fluorotetrahydro-1H-pyrrolizin-7a(5H)-yl)methoxy)-8-(5,5a,6,6a-tetrahydro-1H-cyclopropa[3,4]cyclopen-ta[1,2-f]indazol-4-yl)pyrido[4′,3′:4,5]thieno [2,3-d]pyrimidin-4-yl)-6-methyl-1,4-oxazepan-6-ol] | 129 | 65 | 103 | 399 |
| CCC1=CC(F)(F)c2cc3[nH]ncc3c(-c3nccc4c3sc3nc(OC[C@@]56CCCN5C[C@H](F)C6)nc(N5CCOC[C@@](C)(O)C5)c34)c21 [Ex-114, (6S)-4-(8-(5-ethyl-7,7-difluoro-1,7-dihydrocyclopenta[f]inda-zol-4-yl)-2-(((2R,7aS)-2-fluorotetrahydro-1H-pyrrolizin-7a(5H)-yl)methoxy)pyrido[4′,3′:4,5]thi-eno[2,3-d]pyrimidin-4-yl)-6-methyl-1,4-oxazepan-6-ol] | 380 | 165 | 278 | 670 |
| Cc1c(Cl)cccc1-c1nccc2c1sc1nc(OC[C@@]34CCCN3C[C@H](F)C4)nc(N3CCOC[C@@](C)(O)C3)c12 [Ex-121, (S)-4-(8-(3-chloro-2-methylphenyl)-2-(((2R,7aS)-2-fluorotetrahydro-1H-pyrrolizin-7a(5H)-yl)methoxy)pyrido[4′,3′:4,5]thi-eno[2,3-d]pyrimidin-4-yl)-6-methyl-1,4-oxazepan-6-ol] | 1030 | 369 | 278 | 3430 |

The remaining lines, values ahead:

| IC50 (KRAS-WT) [nM] | IC50 (KRAS-G12D) [nM] | IC50 (KRAS-G12V) [nM] | IC50 (AsPC-1 cells) [nM] | SMILES |
| --- | --- | --- | --- | --- |
| 482 | 226 | 340 | 1860 | C[C@@]1(O)COCCN(c2nc(OC[C@@]34CCCN3C[C@H](F)C4)nc3sc4c(-c5c6c(cc7[nH]ncc57)CCC6C(F)(F)F)nccc4c23)C1 (stereo partly shown) [Ex-92] |
| 55.1 | 19.7 | 30.6 | 128 | CC1=CCc2cc3[nH]ncc3c(-c3nccc4c3sc3nc(OC[C@@]56CCCN5C[C@H](F)C6)nc(N5CCOC[C@@](C)(O)C5)c34)c21 [Ex-106, (6S)-4-(2-(((2R,7aS)-2-fluorotetrahydro-1H-pyrrolizin-7a(5H)-yl)methoxy)-8-(5-methyl-1,7-dihydrocyclopenta[f]inda-zol-4-yl)pyrido[4′,3′:4,5]thieno [2,3-d]pyrimidin-4-yl)-6-methyl-1,4-oxazepan-6-ol] |
| 1080 | 403 | 269 | 2030 | Cc1cccc(-c2nccc3c2sc2nc(OC[C@@]45CCCN4C[C@H](F)C5)nc(N4CCOC[C@@](C)(O)C4)c23)c1C [Ex-120, (S)-4-(8-(2,3-dimethylpheny1)-2-(((2R,7aS)-2-fluorotetrahydro-1H-pyrrolizin-7a(5H)-yl)methoxy)pyrido[4′,3′:4,5]thi-eno[2,3-d]pyrimidin-4-yl)-6-methyl-1,4-oxazepan-6-ol] |
